Laboratory results reported in the supplement of paper PMC12463676, “Small-molecule dissolution of stress granules by redox modulation benefits ALS models” (Nature Chemical Biology, 2025).

What was measured:
potassium arsenate = compound: O=[As]([O-])(O)O.[K+] [potassium arsenate]; test: thermal stability z-score vs DMSO; higher = more thermally stabilized by treatment; details: HeLa; arsenate concentration 1 mM
Procedure: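 Cellular thermal proteome profiling in HeLa cells treated with 1 mM arsenate for 1 h (DMSO pretreatment), heated to ten temperatures (37-66.3 °C). Soluble protein was quantified by TMT mass spectrometry relative to DMSO controls; the thermal stability score was transformed to a z-score; mean of n = 3 experiments.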

lipoamide = compound: NC(=O)CCCCC1CCSS1 [lipoamide]; test: as above; details: HeLa, lipoamide concentration 100 µM
Procedure: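 Cellular thermal proteome profiling in HeLa cells. Cells were treated with 100 µM lipoamide for 1 h, with or without 1 mM arsenate for a further 1 h, then heated to ten temperatures (37-66.3 °C), and soluble protein was quantified by TMT mass spectrometry relative to 0.1% DMSO controls. The thermal stability score (sum of log2 fold changes minus the abundance score) was transformed to a z-score; mean of n = 3 experiments.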

[1] = arsenate co-treatment: 1 mM arsenate 1 h
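Also: each temperature applied for 3 min, abundance score taken as mean log2 fold change at the two lowest temperatures, z-score obtained by mean subtraction and division by SD.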

Chain of UniProt Q9Y2Q3 (Q9Y2Q3 whole entry): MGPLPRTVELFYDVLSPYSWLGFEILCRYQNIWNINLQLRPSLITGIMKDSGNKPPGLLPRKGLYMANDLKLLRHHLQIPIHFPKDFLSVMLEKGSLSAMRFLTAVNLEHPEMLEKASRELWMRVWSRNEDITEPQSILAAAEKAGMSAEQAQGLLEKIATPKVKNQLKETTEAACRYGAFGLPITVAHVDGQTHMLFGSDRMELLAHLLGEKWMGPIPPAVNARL
Chain of UniProt P27105 (P27105 whole entry): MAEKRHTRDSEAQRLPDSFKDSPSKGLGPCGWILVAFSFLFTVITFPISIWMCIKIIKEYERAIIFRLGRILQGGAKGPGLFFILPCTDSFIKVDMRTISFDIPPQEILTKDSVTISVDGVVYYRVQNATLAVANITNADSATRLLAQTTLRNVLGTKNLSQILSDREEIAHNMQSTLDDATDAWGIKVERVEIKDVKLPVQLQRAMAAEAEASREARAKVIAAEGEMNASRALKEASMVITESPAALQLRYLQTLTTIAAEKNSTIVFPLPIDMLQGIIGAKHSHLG
Chain of UniProt Q8NFZ5 (Q8NFZ5 whole entry): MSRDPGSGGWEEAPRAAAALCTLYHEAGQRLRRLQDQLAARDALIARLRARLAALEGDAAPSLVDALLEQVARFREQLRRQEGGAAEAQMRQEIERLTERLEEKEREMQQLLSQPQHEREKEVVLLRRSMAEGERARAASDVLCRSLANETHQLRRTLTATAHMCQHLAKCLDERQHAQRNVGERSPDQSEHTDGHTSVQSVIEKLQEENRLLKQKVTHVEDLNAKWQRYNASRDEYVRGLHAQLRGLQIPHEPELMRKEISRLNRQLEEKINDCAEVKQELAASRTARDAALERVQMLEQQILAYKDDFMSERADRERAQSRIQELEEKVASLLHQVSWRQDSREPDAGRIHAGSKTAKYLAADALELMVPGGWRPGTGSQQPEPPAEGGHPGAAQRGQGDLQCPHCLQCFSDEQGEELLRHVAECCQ
Chain of UniProt Q8NI08 (Q8NI08 whole entry): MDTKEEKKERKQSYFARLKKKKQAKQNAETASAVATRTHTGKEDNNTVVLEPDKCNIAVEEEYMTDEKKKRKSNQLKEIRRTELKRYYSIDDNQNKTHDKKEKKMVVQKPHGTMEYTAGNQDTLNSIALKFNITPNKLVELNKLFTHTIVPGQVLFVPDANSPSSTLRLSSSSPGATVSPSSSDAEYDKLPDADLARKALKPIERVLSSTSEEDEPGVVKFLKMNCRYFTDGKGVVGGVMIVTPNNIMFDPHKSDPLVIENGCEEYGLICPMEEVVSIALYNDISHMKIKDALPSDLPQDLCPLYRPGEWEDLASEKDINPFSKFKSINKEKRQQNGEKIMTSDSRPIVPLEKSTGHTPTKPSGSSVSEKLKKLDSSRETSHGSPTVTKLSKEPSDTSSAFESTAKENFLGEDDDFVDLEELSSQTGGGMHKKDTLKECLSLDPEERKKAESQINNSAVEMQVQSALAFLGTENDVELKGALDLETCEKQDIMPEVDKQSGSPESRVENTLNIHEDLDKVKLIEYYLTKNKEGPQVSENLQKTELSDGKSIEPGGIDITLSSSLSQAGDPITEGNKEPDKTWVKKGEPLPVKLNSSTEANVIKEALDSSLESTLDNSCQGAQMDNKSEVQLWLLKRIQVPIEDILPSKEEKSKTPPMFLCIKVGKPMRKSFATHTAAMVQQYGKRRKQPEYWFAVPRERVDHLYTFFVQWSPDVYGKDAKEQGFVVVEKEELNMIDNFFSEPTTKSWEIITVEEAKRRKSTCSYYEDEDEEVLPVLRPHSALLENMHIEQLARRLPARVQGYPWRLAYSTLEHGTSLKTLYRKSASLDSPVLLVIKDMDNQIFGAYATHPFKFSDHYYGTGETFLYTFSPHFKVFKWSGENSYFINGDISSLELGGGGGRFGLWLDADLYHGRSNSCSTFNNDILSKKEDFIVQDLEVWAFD
Chain of UniProt Q8NEM2 (Q8NEM2 whole entry): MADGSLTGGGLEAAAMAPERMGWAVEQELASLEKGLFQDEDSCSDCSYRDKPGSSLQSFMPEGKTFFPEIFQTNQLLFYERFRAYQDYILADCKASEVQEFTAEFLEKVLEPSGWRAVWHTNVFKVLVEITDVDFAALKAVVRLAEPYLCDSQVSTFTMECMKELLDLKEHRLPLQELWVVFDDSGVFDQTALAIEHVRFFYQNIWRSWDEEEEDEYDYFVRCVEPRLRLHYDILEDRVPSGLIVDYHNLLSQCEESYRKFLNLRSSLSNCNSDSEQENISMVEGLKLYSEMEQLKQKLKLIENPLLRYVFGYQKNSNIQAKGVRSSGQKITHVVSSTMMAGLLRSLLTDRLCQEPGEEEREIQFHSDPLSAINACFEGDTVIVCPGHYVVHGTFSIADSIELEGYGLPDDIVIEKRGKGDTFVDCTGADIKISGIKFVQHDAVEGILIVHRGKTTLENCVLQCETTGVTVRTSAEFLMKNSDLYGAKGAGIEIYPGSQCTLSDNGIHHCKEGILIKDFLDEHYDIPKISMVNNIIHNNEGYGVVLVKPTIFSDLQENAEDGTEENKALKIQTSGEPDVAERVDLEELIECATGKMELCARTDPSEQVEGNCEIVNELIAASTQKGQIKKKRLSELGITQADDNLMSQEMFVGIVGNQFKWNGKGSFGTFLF
Chain of UniProt P49069 (P49069 whole entry): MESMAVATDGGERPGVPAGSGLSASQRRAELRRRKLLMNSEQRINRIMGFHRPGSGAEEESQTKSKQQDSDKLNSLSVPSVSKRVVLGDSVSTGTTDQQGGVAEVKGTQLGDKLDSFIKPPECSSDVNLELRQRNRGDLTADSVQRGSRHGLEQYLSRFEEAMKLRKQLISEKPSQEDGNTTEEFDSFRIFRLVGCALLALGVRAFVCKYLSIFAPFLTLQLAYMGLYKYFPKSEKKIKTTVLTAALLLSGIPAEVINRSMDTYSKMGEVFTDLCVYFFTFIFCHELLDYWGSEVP
Chain of UniProt Q86XZ4 (Q86XZ4 whole entry): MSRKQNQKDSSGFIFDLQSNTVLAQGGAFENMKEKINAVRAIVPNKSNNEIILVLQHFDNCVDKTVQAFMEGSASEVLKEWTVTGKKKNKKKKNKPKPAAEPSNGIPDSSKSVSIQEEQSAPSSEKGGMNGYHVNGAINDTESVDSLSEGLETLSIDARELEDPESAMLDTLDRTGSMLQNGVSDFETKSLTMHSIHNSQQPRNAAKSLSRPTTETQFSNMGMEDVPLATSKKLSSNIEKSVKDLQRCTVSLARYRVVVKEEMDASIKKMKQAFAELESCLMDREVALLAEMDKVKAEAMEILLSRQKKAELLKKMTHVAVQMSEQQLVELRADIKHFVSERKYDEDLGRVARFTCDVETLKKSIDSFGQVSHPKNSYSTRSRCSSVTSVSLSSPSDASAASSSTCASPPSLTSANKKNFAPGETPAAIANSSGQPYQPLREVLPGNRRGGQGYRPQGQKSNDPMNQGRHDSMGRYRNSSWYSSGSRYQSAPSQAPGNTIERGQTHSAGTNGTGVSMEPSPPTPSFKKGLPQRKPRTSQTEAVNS
Chain of UniProt Q9BWG6 (Q9BWG6 whole entry): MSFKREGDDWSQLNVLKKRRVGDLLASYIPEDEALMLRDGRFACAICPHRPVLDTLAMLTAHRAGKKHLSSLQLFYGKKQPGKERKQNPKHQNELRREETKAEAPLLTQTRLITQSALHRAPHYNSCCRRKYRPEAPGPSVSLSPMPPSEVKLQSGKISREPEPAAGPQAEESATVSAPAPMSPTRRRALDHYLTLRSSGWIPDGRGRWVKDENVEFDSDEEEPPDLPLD
Chain of UniProt Q10469 (Q10469 whole entry): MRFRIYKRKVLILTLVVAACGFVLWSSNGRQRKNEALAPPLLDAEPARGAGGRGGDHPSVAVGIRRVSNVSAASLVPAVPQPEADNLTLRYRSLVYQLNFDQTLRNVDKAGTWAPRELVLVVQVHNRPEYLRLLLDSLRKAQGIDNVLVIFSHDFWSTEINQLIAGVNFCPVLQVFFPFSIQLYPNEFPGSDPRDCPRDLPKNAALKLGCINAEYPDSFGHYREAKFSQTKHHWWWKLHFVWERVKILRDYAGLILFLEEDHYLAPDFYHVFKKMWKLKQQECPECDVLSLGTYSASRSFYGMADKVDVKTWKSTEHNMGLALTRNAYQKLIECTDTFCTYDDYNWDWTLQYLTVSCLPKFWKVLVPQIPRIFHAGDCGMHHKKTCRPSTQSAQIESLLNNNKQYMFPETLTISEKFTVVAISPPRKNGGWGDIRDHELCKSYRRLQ
Chain of UniProt Q9Y478 (Q9Y478 whole entry): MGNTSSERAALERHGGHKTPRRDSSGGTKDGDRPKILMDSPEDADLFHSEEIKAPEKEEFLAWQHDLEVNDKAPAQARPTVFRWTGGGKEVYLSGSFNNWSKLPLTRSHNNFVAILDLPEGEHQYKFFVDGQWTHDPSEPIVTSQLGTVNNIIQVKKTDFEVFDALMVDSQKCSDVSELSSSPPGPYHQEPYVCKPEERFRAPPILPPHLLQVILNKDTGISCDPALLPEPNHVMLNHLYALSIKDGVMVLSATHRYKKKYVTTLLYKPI
Chain of UniProt Q7Z6J9 (Q7Z6J9 whole entry): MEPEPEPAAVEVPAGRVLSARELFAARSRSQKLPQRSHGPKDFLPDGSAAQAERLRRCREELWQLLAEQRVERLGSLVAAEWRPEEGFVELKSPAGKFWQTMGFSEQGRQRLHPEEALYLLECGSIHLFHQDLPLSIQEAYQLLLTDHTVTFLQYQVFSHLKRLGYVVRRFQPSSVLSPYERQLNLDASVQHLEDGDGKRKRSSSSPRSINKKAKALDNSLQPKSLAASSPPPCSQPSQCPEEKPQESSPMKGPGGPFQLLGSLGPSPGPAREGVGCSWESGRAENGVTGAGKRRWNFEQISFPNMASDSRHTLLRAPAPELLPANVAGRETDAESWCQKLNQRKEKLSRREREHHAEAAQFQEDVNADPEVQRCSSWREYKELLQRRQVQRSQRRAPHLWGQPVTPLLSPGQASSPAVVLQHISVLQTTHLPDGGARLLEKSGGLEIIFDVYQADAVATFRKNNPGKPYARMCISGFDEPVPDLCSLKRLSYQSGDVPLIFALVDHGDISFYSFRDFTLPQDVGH

Target	thermal stability z-score (potassium arsenate)	thermal stability z-score (lipoamide; [1])	thermal stability z-score (lipoamide; arsenate co-treatment: none)
WDR89 (UniProt Q96FK6)	-12.3	2.45	1.2
CD59 (UniProt P13987)	3.07	0.714	0.698
ZDHHC20 (UniProt Q5W0Z9)	0.242	0.527	0.247
STOM (UniProt P27105)	0.0471	-0.123	0.354
EIF3B (UniProt P55884)	0.472	-0.333	0.0629
RHOG (UniProt P84095)	0.00682	0.489	0.491
PDE8B (UniProt O95263)	0.228	-0.563	0.202
TSEN15 (UniProt Q8WW01)	0.473	-0.438	-0.0314
METTL16 (UniProt Q86W50)	-0.0708	-0.248	-0.347
MRPS14 (UniProt O60783)	-0.644	-0.722	-0.574
RBM39 (UniProt Q14498)	-0.546	-0.398	0.0967
NUDT12 (UniProt Q9BQG2)	0.253	0.0414	0.0448
UBQLN2 (UniProt Q9UHD9)	-0.0552	1.26	0.932
PRKAB1 (UniProt Q9Y478)	-0.528	-0.236	0.539
PSMD4 (UniProt P55036)	0.383	0.377	0.242
NME1|NME2	0.487	0.455	0.432
SNAP47 (UniProt Q5SQN1)	-0.104	-0.303	-0.252
ACY1 (UniProt Q03154)	0.873	0.304	0.38
VPS13B (UniProt Q7Z7G8)	-0.168	0.291	0.491
ACTR8 (UniProt Q9H981)	-0.347	-0.154	-0.0898
ANXA7 (UniProt P20073)	0.966	1.98	1.08
HAT1 (UniProt O14929)	0.265	0.352	0.375
HACL1 (UniProt Q9UJ83)	0.107	0.259	-0.331
CAMLG (UniProt P49069)	0.0417	0.508	0.0877

Target	thermal stability z-score (potassium arsenate)	thermal stability z-score (lipoamide; [1])	thermal stability z-score (lipoamide; arsenate co-treatment: none)
TNIP2 (UniProt Q8NFZ5)	0.126	0.0235	0.193
EML4 (UniProt Q9HC35)	1.33	-0.51	-0.693
ARAF (UniProt P10398)	-0.275	-0.299	-0.252
SCNM1 (UniProt Q9BWG6)	0.418	-0.00102	0.278
ARHGAP4 (UniProt P98171)	0.0513	-0.00218	0.000585
TSEN54 (UniProt Q7Z6J9)	0.795	-0.815	0.162
C11ORF54 (UniProt Q9H0W9)	0.829	2.36	3.02
TNRC6A (UniProt Q8NDV7)	-0.416	-0.105	-0.121
CC2D1B (UniProt Q5T0F9)	-0.125	-0.661	-0.8
SNRPGP15|SNRPG	0.296	1.63	0.677
IRAK1 (UniProt P51617)	-0.328	-0.153	-0.074
SLC38A2 (UniProt Q96QD8)	0.774	0.351	0.272
TDP2 (UniProt O95551)	0.242	0.0323	-0.0541
USP48 (UniProt Q86UV5)	-0.669	-0.179	-0.137
KRI1 (UniProt Q8N9T8)	-0.376	0.198	-0.118
GSTK1 (UniProt Q9Y2Q3)	-0.0332	-0.0293	0.351
TUBA1C (UniProt Q9BQE3)	-0.265	-0.163	0.681
PARVB (UniProt Q9HBI1)	-0.107	-0.459	0.319
PIR (UniProt O00625)	-1.25	3.16	2.76
CYFIP2 (UniProt Q96F07)	0.312	0.325	0.825
NCOA7 (UniProt Q8NI08)	0.0655	-0.676	-0.721
SFN (UniProt P31947)	-0.012	0.524	0.0759
TIMM21 (UniProt Q9BVV7)	0.255	0.0115	0.000788
INPP5J (UniProt Q15735)	-0.471	-0.307	-0.456

Target	thermal stability z-score (potassium arsenate)	thermal stability z-score (lipoamide; [1])	thermal stability z-score (lipoamide; arsenate co-treatment: none)
AGPAT1 (UniProt Q99943)	0.0795	-0.0471	-0.591
PRKAG1 (UniProt P54619)	0.942	0.174	0.0278
XPO6 (UniProt Q96QU8)	-0.339	0.0641	0.00854
CPTP (UniProt Q5TA50)	1.5	2.01	0.706
ZNF330 (UniProt Q9Y3S2)	-0.558	-0.367	-0.417
MGST1 (UniProt P10620)	0.892	0.304	-0.147
SHCBP1 (UniProt Q8NEM2)	-0.451	0.0159	0.0645
MGAT2 (UniProt Q10469)	0.24	-0.206	-0.0594
UQCRFS1 (UniProt P47985)	-2.17	0.00262	0.279
PROSER2 (UniProt Q86WR7)	-0.644	-0.111	-0.0827
RNGTT (UniProt O60942)	-0.0249	-0.0218	0.0305
COPS2 (UniProt P61201)	0.0289	0.538	-0.0451
SPATS2 (UniProt Q86XZ4)	-0.00843	-0.0725	0.644
SLC1A4 (UniProt P43007)	-0.588	-0.807	-0.485
HIST1H1C (UniProt P16403)	0.0976	0.707	0.018
NAGLU (UniProt P54802)	0.253	0.208	-0.281
AIM1	0.00488	-0.151	-0.209
DNAJB2 (UniProt P25686)	0.142	0.422	0.0161
NELFA (UniProt Q9H3P2)	-0.107	-0.1	-0.0674
BICC1 (UniProt Q9H694)	-0.19	0.291	0.353
GPX1 (UniProt P07203)	-0.087	0.0953	0.0517
DUSP12 (UniProt Q9UNI6)	1.05	-0.0977	0.123
ATG9A (UniProt Q7Z3C6)	0.359	-0.389	-0.339
PLXND1 (UniProt Q9Y4D7)	0.534	-0.194	-0.712
